Earlier results, collected in patent US20200397798A1, “COMBINATION THERAPIES WITH FARNESOID X RECEPTOR (FXR) MODULATORS” (Akarna Therapeutics, Ltd., priority 2016, published 2020).
“Also recorded” adds a separate entry of the source.

Experiments:
[1] = test system: CGD-susceptible C57L mice; conditions: lithogenic diet supplemented with GW4064, 1 week
ob/ob and db/db mice = conditions: mouse, in vivo
mice = conditions: in vivo
[2] = test system: plasma triglyceride levels; conditions: human, in vivo
KK-A(y) mice = conditions: mouse, in vivo
[3] = test system: C57BL/6 mice fed an MCD diet
[4] = test system: patients with biopsy-proven NASH; conditions: OCA arm, 25 mg orally daily
[5] = test system: DSS- and TNBS-induced intestinal inflammation; conditions: wild type, but not Fxr−/− mice

Which “Cl− secretory responses to Ca2+ and cAMP-dependent agonists” value (T84 cells) does the source give for `CC(C)c1onc(-c2c(Cl)cccc2Cl)c1COc1ccc(/C=C/c2cccc(C(=O)O)c2)c(Cl)c1` [GW4064] here?
The value was “attenuated”.

What about the “nuclear translocation of the receptor (FXR)” value (T84 cells) of the same compound?
The value was “induced nuclear translocation”.

What about the CGD onset [1] of the same compound?
The CGD onset was “prevented CGD onset”.

What about the liver steatosis (ob/ob and db/db mice) of the same compound?
Its liver steatosis is “able to prevent liver steatosis”.

And the “ovalbumin-induced diarrhea and cholera toxin-induced intestinal fluid accumulation” value (mice)?
The value was “reduced”.

Which plasma triglyceride levels [2] does the source give for `C[C@H](CCC(=O)O)[C@H]1CC[C@H]2[C@@H]3[C@H](O)C[C@@H]4C[C@H](O)CC[C@]4(C)[C@H]3CC[C@]12C` [CDCA, chenodeoxycholic acid] here?
The plasma triglyceride levels was “decreased circulating TG levels; also recorded: reduces plasma triglyceride levels”.

For `C[C@H](CCC(=O)O)[C@H]1CC[C@H]2[C@@H]3[C@H](O)C[C@@H]4C[C@H](O)CC[C@]4(C)[C@H]3C[C@H](O)[C@]12C` [CA], which “hepatic TG accumulation and VLDL secretion” value (KK-A(y) mice) is on record?
The value was “prevented”.

With `CC(C)OC(=O)C1=CN(C(=O)c2ccc(F)c(F)c2)CC(C)(C)c2c1[nH]c1ccccc21` [WAY-362450] as the compound, how does the “elevations of serum ALT and AST induced by the MCD diet” value ([3]; 4 weeks treatment) read?
The value was “markedly reduced”.

And the “hepatoprotective effects in FXR−/− mice” value ([3]; FXR−/− mice fed an MCD diet)?
The value was “abolished”.

With `CC[C@H]1[C@@H](O)[C@@H]2[C@H](CC[C@]3(C)[C@@H]([C@H](C)CCC(=O)O)CC[C@@H]23)[C@@]2(C)CC[C@@H](O)C[C@@H]12` [OCA, obeticholic acid] as the compound, how does the “change in HDL, total cholesterol and LDL compared to placebo” value [4] read?
Its value is “decrease in the high-density lipoprotein (HDL) and an increase in the total cholesterol and low-density lipoprotein (LDL)”.

For `CC[C@H]1[C@@H](O)[C@@H]2[C@H](CC[C@]3(C)[C@@H]([C@H](C)CCC(=O)O)CC[C@@H]23)[C@@]2(C)CC[C@@H](O)C[C@@H]12` [Compound 6-ECDCA], which “expression of proinflammatory cytokines, chemokines and their receptors” value [5] is on record?
The value was “repressed”.
